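Grown in 96-well plates, cells were treated for 48 hours with each compound at five concentrations. Insufficient inhibition: endpoint recorded as highest concentration tested. GI50 = concentration required for 50% inhibition of growth. TGI is the concentration that stops growth completely.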
Legend:
Test in all cases: NCI tumour cell line growth inhibition, 48 h
[1] = tested on: SNB-75 CNS
[2] = tested on: SF-268 CNS
[3] = tested on: HL-60(TB) leukemia
[4] = tested on: SF-539 CNS
[5] = tested on: TK-10 renal
[6] = tested on: KM12 colon
[7] = tested on: SK-MEL-28 melanoma
[8] = tested on: HT29 colon
[9] = tested on: HCC-2998 colon
[10] = tested on: MDA-N

Structure (SMILES)	TGI [1] [µM]	TGI [2] [µM]	TGI [3] [µM]	TGI [4] [µM]	TGI [5] [µM]	TGI [6] [µM]	TGI [7] [µM]	TGI [8] [µM]	TGI [9] [µM]	TGI [10] [µM]	GI50 [1] [µM]	GI50 [2] [µM]	GI50 [9] [µM]	GI50 [3] [µM]	GI50 [4] [µM]	GI50 [5] [µM]	GI50 [6] [µM]	GI50 [7] [µM]	GI50 [8] [µM]
N.N.N.O=[N+]([O-])[O-].O=[N+]([O-])[O-].O=[N+]([O-])[O-].O=[N+]([O-])[O-].[Co+3]	> 100	> 100	> 100	> 100	> 100	> 100	> 100	> 100											
C=C(C(=O)C(=O)Oc1ccc(Cl)cc1)C(=O)c1ccc(C)cc1	> 100	> 100	> 100	34.7	> 100	42.5	> 100	> 100	76										
CC1=C(O)C(=O)[C@@H]2O[C@@H]2C1=O	31.9	30.5	8.59	41.9		27.3	16.7	36.6	35.6										
Cc1ccc(-c2c(C#N)c(-c3ccccc3)n(NS(=O)(=O)c3ccccc3)c(=O)c2C#N)cc1	> 100	> 100		> 100	> 100	> 100	> 100	> 100	> 100	> 100									
COc1ccc(-n2c(=O)c3[nH]cnc3n(-c3ccc(OC)cc3)c2=S)cc1	> 100	> 100	> 100	> 100	> 100	> 100	> 100	> 100	> 100										
CCCc1cc(=O)c2c(C)c3[nH]c4ccc(Cl)cc4c3c(C)c2[nH]1	7.93	24.1		3.56	4.06	12.3	3.14	3.31	3.02	3.9									
CC(C)OP(=O)(OC(C)C)c1c(Nc2ccccc2)n[nH]c1N	> 100	> 100		> 100	> 100	> 100	> 100	> 100	> 100	> 100									
C#CCCCCC#Cc1ccccc1C(=O)OC	86.5	> 100	29.4	> 100	> 100	> 100	> 100	> 100	> 100										
COc1ccc(C2CC(c3c(O)ccc4ccccc34)=NN2c2ccc([N+](=O)[O-])cc2[N+](=O)[O-])cc1OC (centres undefined)	70.8	> 100		> 79.8	> 100	> 76.6	> 100	38.3	> 100	> 100									
COc1ccc2[nH]c(O)c(/C=c3/cc4c(c(-c5cc(OC)c(OC)c(OC)c5)n3)=Nc3ccccc3-4)c2c1	> 100	> 100	34	> 100	> 100	> 100	> 100	7.05	> 100		26.7	46.4	34	7.46	22.6	18.5	5.04	26	2.41
COc1ccc(C(C#N)NNC(=O)c2ccccc2O)cc1OC (centres undefined)	> 100	> 100	30.2	6.81	> 100	> 100	> 100	> 100											
C=C(C)C12CC(COC(=O)c3ccccc3)C34OC5(OC1C3C1OC1(CO)C(O)C1(O)C(OC(=O)c3ccccc3)C(C)C(C(C)CCCCCCC5O)C14)O2 (centres undefined)	> 100	> 100		> 100	81.2	> 100	> 100	54.7	> 64.8	> 100									
CN(C)/N=N/c1nc2c(c(=O)n(C)c(=O)n2C)n1C	> 100	> 100			> 100	> 100	> 100	> 100	> 100	> 100									
O=C(NNC(=S)Nc1ccc(Cl)cc1)c1cc(-c2ccccc2)nc2ccccc12	39.8	29.6		11.6	21.7	22.5	14.1	34.9	11.5	6.5									
O=c1[nH]n2c(=O)cc[nH]c2c1-c1nnns1	> 100	> 100	> 100	> 100	> 100	> 100	> 100	> 100	> 100										
O=C(CCCCCCCCC(=O)NN1C(=O)/C(=C\c2ccc(O)c(O)c2)SC1c1ccc(Cl)cc1)NN1C(=O)/C(=C\c2ccc(O)c(O)c2)SC1c1ccc(Cl)cc1 (centres undefined)	> 100	> 62.7		43.8	> 100	> 100	> 100	> 100	> 100	> 100									
